No end group written: not given here.
Tests used:
[1] = tested on: pepsin and trypsin; experiment: Stability against simulated gastrointestinal digestion; type: in vitro ADME; conditions: peptide 5 mg/mL, pepsin pH 1.2, 37°C, 2 h, then trypsin pH 8, 37°C, enzyme:peptide 1:100 (w/w), RP-HPLC, new peaks digested vs undigested
Description: Stability of peptides against simulated gastrointestinal digestion was performed according to the method outlined previously with slight modification ([19]). Briefly, peptide solution (5 mg/mL) was digested by pepsin (pH 1.2, 37°C) for 2 h. Then the pH of the resulting solution was altered to eight with NaOH (1.0°M) to inactivate pepsin, and the peptides solution was further digested by trypsin (2 h, 37°C). Finally, trypsin was inactivated by a hot water bath (95°C, 10 min). The ratio of enzyme to peptide was 1:100 (w/w) in the two digesting processes. The digested and undigested samples were loaded into HPLC (1260 Infinity, Agilent, Santa Clara, CA, United States), respectively, to evaluate the stability of the peptides. […]

[2] = tested on: MCF7 cells; experiment: Cell cycle determination (PI, flow cytometry); type: cell-based; conditions: 250 μg/mL, 48 h
Description: (§1) Cell cycle determination was conducted using a cell cycle kit according to its instructions. Trypsinized cells (MDA-MB-231 or MCF7) were pipetted into the 6-well plate and cultured. When cells confluence reached 50%, peptides were added to the wells, and the treatment lasted 48 h. The cells were harvested and washed with PBS. After being fixed by cold 75% ethanol, cells were treated with RNase A followed by incubation with PI. Finally, the cell cycles of samples were measured by a BD flow cytometer (FACS101, Becton, Dickinson and Company, Franklin Lakes, NJ, United States).
(§2) FIGURE 6 TPVVVPPFL elicited cell arrest of mammary carcinoma cells. MCF7 cells were incubated with TPVVVPPFL for 48 h at the concentration of 250°μg/mL. MDA-MB-231 cells were incubated with TPVVVPPFL for 48 h at the concentration of 500°μg/mL. The cell cycle distributions were analyzed using flow cytometry after treatment with PI.

[3] = tested on: MDA-MB-231 cells; experiment: Cell cycle determination (PI, flow cytometry); type: cell-based; conditions: 500 μg/mL, 48 h
Description: as §1, §2

[4] = tested on: MCF7 cells; experiment: Cell apoptosis determination (Annexin V/PI, flow cytometry); type: cell-based; conditions: 250 μg/mL, 48 h, Annexin-V and PI, mean ± SD
Description: (§3) Cell apoptosis determination was conducted by Annexin V staining of externalized phosphatidylserine in apoptotic cells using a cell apoptosis kit. Then the proportion of the apoptotic cells was analyzed by a BD flow cytometry (FACS101, Becton, Dickinson and Company, Franklin Lakes, NJ, United States).
(§4) FIGURE 7 TPVVVPPFL induced morphology alteration (A) and apoptosis of mammary carcinoma cells (B). MCF7 and MDA-MB-231 cells were incubated with TPVVVPPFL for 48 h at the concentration of 250 and 500°μg/mL, respectively. The image of the two cells was acquired by the inverted microscope, and the apoptotic cells were measured using a flow cytometry after treatment with Annexin-V and PI.

[5] = tested on: MDA-MB-231 cells; experiment: as above; type: cell-based; conditions: 500 μg/mL, 48 h, Annexin-V and PI, mean ± SD
Description: as §3, §4

[6] = tested on: MCF7 cells; type: cell-based
Description: (§5) The culture medium of MDA-MB-231 and MCF7 cells were DMEM containing 10% FBS and 1% AAC. The culture medium of MCF10A was DMEM/F12 containing CT (100°ng/mL), EGF (20°ng/mL), HS (5%), hydrocortisone (0.5°μg/mL), and insulin (10°ug/mL). All the cells were incubated using an incubator (MCO-20AIC, SANYO, Japan) with 5% CO2 and 95% humidity at 37°C.
(§6) Cell activity inhibition was conducted using a CCK8 kit according to the procedure offered by the manufacturer. The trypsinized cells were transferred into the 96-well plate (8,000 cells/well) and cultured for 24 h, then they were incubated with PBS (Control), YMCH (250°μg/mL) or synthetic peptides (0, 62.5, 125, 250, 500, and 1,000°μg/mL) for 48 h or 24–72 h. The CCK8 agent (20°μL) was pipetted into the well followed by incubation (37 °C, 4 h). The absorbance of the medium was acquired at 450 nm using a microplate reader (Multiskan Spectrum, Thermo, Waltham, MA, United States). Finally, according to the below formulae, the cell viability and its inhibition rate were calculated.
(§7) Cellviability(%)=Absorbanceofmediumfromthetreatmentgroup/Absorbanceofmediumfromthecontrolgroup×100
(§8) Inhibitionrateofcellviability(%)=(1Absorbanceofmediumfromthetreatmentgroup/Absorbanceofmediumfromthecontrolgroup)×100

[7] = tested on: MDA-MB-231 cells; type: cell-based
Description: as §5, §6, §7, §8

Sequence | stability against simulated gastrointestinal digestion [1] | cell cycle arrest [2] | cell cycle arrest [3] | apoptosis rate [4] [%] | apoptosis rate [5] [%] | IC50 [6] [µg/mL] | IC50 [7] [µg/mL]
NQFLPYPY [NQFLPYPY] | stable in the simulated digestion condition |  |  |  |  |  | 
TPVVVPPFL [TPVVVPPFL] | stable in the simulated digestion condition | G2/M arrest | S arrest | 48.37 ± 2.74 | 35.11 ± 2.95 | 250 | 500
VAPFPEVFGK [VAPFPEVFGK] | hydrolyzed |  |  |  |  |  | 

From paper PMC9462664, “Preparation and identification of anti-breast cancer cells peptides released from yak milk casein” (Frontiers in Nutrition, 2022)
